This experiment concerns the target human PD-L1 (Homo sapiens (Human), UniProt Q9NZQ7). Nature of the experiment: Enzyme-Linked Immunosorbent Assay—ELISA (PD-1/PD-L1 binding). The conditions noted are these: plates coated with human PD-L1; Human PD-1 and biotin added; absorbance at 450 nm. The method, then: 96 Well plates were coated with 1 μg/mL of human PD-L1 (obtained from R&D) in PBS overnight at 4° C. The wells were then blocked with 2% BSA in PBS (W/V) with 0.05% TWEEN-20 for 1 hour at 37° C. The plates were washed 3 times with PBS/0.05% TWEEN-20 and the compounds were serial diluted (1:5) in dilution medium and added to the ELISA plates. Human PD-1 and biotin 0.3 μg/mL (ACRO Biosystems) were added and incubated for 1 hour at 37° C. then washed 3 times with PBS/0.05% TWEEN-20. A second block was performed with 2% BSA in PBS (W/V)/0.05% TWEEN-20 for 10 min at 37° C. and the plates were washed 3 times with PBS/0.05% TWEEN-20. Streptavidin-HRP was added for 1 hour at 37° C. then the plates were washed 3 times with PBS/0.05% TWEEN-20. TMB substrate was added and reacted for 20 min at 37° C. A stop solution (2 N aqueous H2SO4) was added. The absorbance was read at 450 nm using a micro-plate spectrophotometer. The results are shown in Table 1: IC50 values are provided as follows: from 1000 to 10,000 nM (+); from 10 up to 1000 nM (++); less than 10 nM (+++).
On the technique in general: An ELISA detects its analyte on a solid surface through an enzyme-linked reagent.

A value given as a limit tells only on which side of the number the result lay.

What is called IC50 is the concentration that inhibits the measured activity by half. A higher IC50 goes with a need for much substance.

Chain of human PD-L1 (Q9NZQ7 19-239): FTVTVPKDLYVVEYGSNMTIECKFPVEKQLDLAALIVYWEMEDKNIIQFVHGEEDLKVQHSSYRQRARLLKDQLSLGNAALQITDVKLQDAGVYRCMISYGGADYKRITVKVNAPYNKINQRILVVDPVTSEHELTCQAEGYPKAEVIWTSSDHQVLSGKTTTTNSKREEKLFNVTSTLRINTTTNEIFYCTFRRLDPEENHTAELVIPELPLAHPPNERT

For `COc1nc(-c2cccc(-c3cccc(NC(=O)c4cn(C)c(=O)n(C)c4=O)c3Cl)c2Cl)ccc1CNC[C@@H](C)O` [Compound 1.032], the IC50 is below 10 nM.

`COc1nc(-c2cccc(-c3cccc(NC(=O)c4cn(C)c(=O)n(C)c4=O)c3Cl)c2Cl)ccc1CNC[C@@H](O)CO` [Compound 1.030] displayed an IC50 below 10 nM. For the molecule `COc1nc(-c2cccc(-c3cccc(NC(=O)c4cn(C)c(=O)n(C)c4=O)c3Cl)c2Cl)ccc1CNCCO` [Compound 1.039], the IC50 is below 10 nM. As for `COc1nc(-c2cccc(-c3cccc(NC(=O)c4cn(C)c(=O)n(C)c4=O)c3Cl)c2Cl)cnc1CN1CC(C)(C(=O)O)C1` [Compound 1.099], the IC50 is below 10 nM. Take `COc1nc(-c2cccc(-c3cccc(NC(=O)c4cn(C)c(=O)n(C)c4=O)c3Cl)c2Cl)cnc1CN1CCCC[C@H]1C(=O)O` [Compound 1.091]: the IC50 is below 10 nM. With `COc1nc(-c2cccc(-c3cccc(NC(=O)c4cn(C)c(=O)n(C)c4=O)c3C)c2Cl)ccc1CNC[C@@H]1CC(C)(C)C(=O)N1` [Compound 1.016] the figure was below 10 nM; with `COc1nc(-c2cccc(-c3cccc(NC(=O)c4cn(C)c(=O)n(C)c4=O)c3C)c2Cl)ccc1CNC[C@@H](O)CO` [Compound 1.044], below 10 nM; with `COc1nc(-c2cccc(-c3cccc(NC(=O)c4cn(C)c(=O)n(C)c4=O)c3C)c2Cl)ccc1CNC(C)C` [Compound 1.037], below 10 nM. On to `COc1nc(-c2cccc(-c3cccc(NC(=O)c4cn(C)c(=O)n(C)c4=O)c3C)c2Cl)ccc1CN1CC2(CNC(=O)N2)C1` [Compound 1.025], for which the IC50 is below 10 nM. In the case of `COc1cc(-c2cccc(-c3cccc(NC(=O)c4cn(C)c(=O)n(C)c4=O)c3Cl)c2Cl)ncc1CNC[C@@H]1CCC(=O)N1` [Compound 1.093], the concentration for half-maximal inhibition (IC50) was below 10 nM. `COc1nc(-c2cccc(-c3cccc(NC(=O)c4cn(C)c(=O)n(C)c4=O)c3C)c2Cl)ccc1CN[C@@H]1CCC[C@@H]1O` [Compound 1.011] yielded a half-inhibitory concentration (IC50) below 10 nM.

For the molecule `COc1nc(-c2cccc(-c3cccc(NC(=O)c4cn(C)c(=O)n(C)c4=O)c3F)c2Cl)ccc1CNC[C@@H]1CCC(=O)N1` [Compound 1.059], the IC50 is below 10 nM. `COc1nc(-c2cccc(-c3cccc(NC(=O)c4cn(C)c(=O)n(C)c4=O)c3Cl)c2Cl)cnc1CN1CC2(CCC(=O)N2)C1` [Compound 1.101] yielded an IC50 below 10 nM. `COc1nc(-c2cccc(-c3cccc(NC(=O)c4cn(C)c(=O)n(C)c4=O)c3C)c2Cl)ccc1CNC[C@@H](C)O` [Compound 1.028]: the IC50 was below 10 nM. `COc1cc(-c2cccc(-c3cccc(NC(=O)c4cn(C)c(=O)n(C)c4=O)c3Cl)c2Cl)ncc1CN1CC(C(=O)O)C1` [Compound 1.086] showed an IC50 below 10 nM. In turn, `COc1nc(-c2cccc(-c3cccc(NC(=O)c4cn(C)c(=O)n(C)c4=O)c3Cl)c2Cl)cnc1CN[C@@H]1CCC(=O)NC1` [Compound 1.001] had an IC50 below 10 nM. As for `COc1nc(-c2cccc(-c3cccc(NC(=O)c4cn(C)c(=O)n(C)c4=O)c3Cl)c2Cl)ccc1CNCC1(O)CC1` [Compound 1.035], the IC50 was below 10 nM. With `COc1nc(-c2cccc(-c3cccc(NC(=O)c4cn(C)c(=O)n(C)c4=O)c3C)c2Cl)ccc1CNCC1(O)CC1` [Compound 1.022] the figure was 1000 to 10000 nM.

Molecule `CCOc1nc(-c2cccc(-c3cccc(NC(=O)c4cn(C)c(=O)n(C)c4=O)c3C)c2Cl)ccc1CNC[C@@H]1CCC(=O)N1` [Compound 1.047] had an IC50 below 10 nM. Molecule `COc1nc(-c2cccc(-c3cccc(NC(=O)c4cn(C)c(=O)n(C)c4=O)c3C)c2Cl)cnc1CN[C@@H]1CCOC[C@@H]1O` [Compound 1.078] showed an IC50 below 10 nM.

With `COc1cc(-c2cccc(-c3cccc(NC(=O)c4cn(C)c(=O)n(C)c4=O)c3Cl)c2Cl)ncc1CN[C@@H]1CCOC[C@@H]1O` [Compound 1.097], the IC50 is below 10 nM. On to `COc1nc(-c2cccc(-c3cccc(NC(=O)c4cn(C)c(=O)n(C)c4=O)c3C)c2Cl)ccc1CN1CC2(CCNC2=O)C1` [Compound 1.092], for which the IC50 was below 10 nM. Take `COc1nc(-c2cccc(-c3cccc(NC(=O)c4cn(C)c(=O)n(C)c4=O)c3Cl)c2Cl)ccc1CNCCCO` [Compound 1.036]: the IC50 is below 10 nM. With `COc1nc(-c2cccc(-c3cccc(NC(=O)c4cn(C)c(=O)n(C)c4=O)c3C)c2Cl)ccc1CNCC(C)(C)O` [Compound 1.055] the figure was below 10 nM; with `COc1nc(-c2cccc(-c3cccc(NC(=O)c4cn(C)c(=O)n(C)c4=O)c3C)c2Cl)ccc1CN[C@H](C)CO` [Compound 1.020], below 10 nM.

Regarding `COc1nc(-c2cccc(-c3cccc(NC(=O)c4cn(C)c(=O)n(C)c4=O)c3C)c2Cl)ccc1CN[C@@H]1CCCC[C@@H]1O` [Compound 1.017], the IC50 is below 10 nM.

Regarding `COc1cc(-c2cccc(-c3cccc(NC(=O)c4cn(C)c(=O)n(C)c4=O)c3Cl)c2Cl)ncc1CN1CC(O)C1` [Compound 1.080], the IC50 is 10 to 1000 nM.

`COc1nc(-c2cccc(-c3cccc(NC(=O)c4cn(C)c(=O)n(C)c4=O)c3C)c2Cl)ccc1CNCC(=O)O` [Compound 1.051]: the IC50 is below 10 nM. `COc1nc(-c2cccc(-c3cccc(NC(=O)c4cn(C)c(=O)n(C)c4=O)c3Cl)c2Cl)cnc1CN1CC2(CCNC2=O)C1` [Compound 1.102] gave a half-inhibitory concentration (IC50) below 10 nM. `COc1nc(-c2cccc(-c3cccc(NC(=O)c4cn(C)c(=O)n(C)c4=O)c3C)c2Cl)ccc1CNC[C@@H]1CCC(=O)N1` [Compound 1.006] showed an IC50 below 10 nM. `COc1nc(-c2cccc(-c3cccc(NC(=O)c4cn(C)c(=O)n(C)c4=O)c3Cl)c2Cl)ncc1CNC[C@@H]1CCC(=O)N1` [Compound 1.081] yielded an IC50 below 10 nM. As to `COc1nc(-c2cccc(-c3cccc(NC(=O)c4nn(C)c(=O)n(C)c4=O)c3Cl)c2Cl)ccc1CNC[C@@H]1CCC(=O)N1` [Compound 1.064], the IC50 was below 10 nM. In turn, `COc1nc(-c2cccc(-c3cccc(NC(=O)c4cn(C)c(=O)n(C)c4=O)c3Cl)c2F)ccc1CN[C@@H]1CCOC[C@@H]1O` [Compound 1.018] gave an IC50 below 10 nM. On to `COc1nc(-c2cccc(-c3cccc(NC(=O)c4cn(C)c(=O)n(C)c4=O)c3)c2Cl)ccc1CNC[C@@H]1CCC(=O)N1` [Compound 1.061], for which the half-maximal inhibitory concentration (IC50) was below 10 nM. Consider `COc1nc(-c2cccc(-c3cccc(NC(=O)c4cn(C)c(=O)n(C)c4=O)c3Cl)c2Cl)cnc1CN[C@H]1CCOC[C@H]1O` [Compound 1.004], for which the half-inhibitory concentration (IC50) is below 10 nM.

Molecule `COc1nc(-c2cccc(-c3cccc(NC(=O)c4cn(C)c(=O)n(C)c4=O)c3Cl)c2Cl)cnc1CN[C@@H]1CCOC[C@@H]1O` [Compound 1.005] yielded a concentration for half-maximal inhibition (IC50) below 10 nM.

For `COc1nc(-c2cccc(-c3cccc(NC(=O)c4cn(C)c(=O)n(C)c4=O)c3C)c2Cl)ccc1CN1CC(C(C)(C)O)C1` [Compound 1.041], the IC50 was below 10 nM. In turn, `COc1nc(-c2cccc(-c3cccc(NC(=O)c4cn(C)c(=O)n(C)c4=O)c3C)c2Cl)ccc1CN[C@@H]1CCOC[C@H]1O` [Compound 1.014] displayed an IC50 below 10 nM. With `COc1nc(-c2cccc(-c3cccc(NC(=O)c4cn(C)c(=O)n(C)c4=O)c3C)c2Cl)ccc1CN1CC(O)C1` [Compound 1.095] the figure was below 10 nM; with `Cn1cc(C(=O)Nc2cccc(-c3cccc(-c4ccc(CNC[C@@H]5CCC(=O)N5)c(O)n4)c3Cl)c2Cl)c(=O)n(C)c1=O` [Compound 1.033], 10 to 1000 nM. `COc1nc(-c2cccc(-c3cccc(NC(=O)c4cn(C)c(=O)n(C)c4=O)c3Cl)c2Cl)ccc1CN1CC(O)C1` [Compound 1.090]: the half-maximal inhibitory concentration (IC50) was below 10 nM.

In the case of `COc1nc(-c2cccc(-c3cccc(NC(=O)c4cn(C)c(=O)n(C)c4=O)c3C)c2Cl)ccc1CN[C@@H]1CNC(=O)C1` [Compound 1.007], the IC50 is below 10 nM. With `COc1nc(-c2cccc(-c3cccc(NC(=O)c4cn(C)c(=O)n(C)c4=O)c3C)c2Cl)ccc1CNCC(C)(C)C(N)=O` [Compound 1.040] the figure was below 10 nM; with `COc1nc(-c2cccc(-c3cccc(NC(=O)c4cn(C)c(=O)n(C)c4=O)c3C)c2Cl)ccc1CN1CC[C@@](C)(O)C1` [Compound 1.048], below 10 nM; with `COc1nc(-c2cccc(-c3cccc(NC(=O)c4cn(C)c(=O)n(C)c4=O)c3C)c2C)ccc1CNC[C@@H]1CCC(=O)N1` [Compound 1.062], below 10 nM. Turning to `COc1nc(-c2cccc(-c3cccc(NC(=O)c4c[nH]c(=O)n(C)c4=O)c3C)c2Cl)ccc1CNC[C@@H]1CCC(=O)N1` [Compound 1.065], the IC50 was below 10 nM. For the molecule `CCc1nc(-c2cccc(-c3cccc(NC(=O)c4cn(C)c(=O)n(C)c4=O)c3C)c2Cl)ccc1CNC[C@@H]1CCC(=O)N1` [Compound 1.054], the IC50 was below 10 nM.

As to `COc1nc(-c2cccc(-c3cccc(NC(=O)c4cn(C)c(=O)n(C)c4=O)c3C)c2Cl)ccc1CN[C@H]1CCOC[C@H]1O` [Compound 1.042], the concentration for half-maximal inhibition (IC50) was below 10 nM. The molecule `CNCc1ccc(-c2cccc(-c3cccc(NC(=O)c4cn(C)c(=O)n(C)c4=O)c3C)c2Cl)nc1OC` [Compound 1.031] displayed an IC50 below 10 nM.

The molecule `COc1nc(-c2cccc(-c3cccc(NC(=O)c4cn(C)c(=O)n(C)c4=O)c3C)c2F)ccc1CN[C@@H]1CCOC[C@@H]1O` [Compound 1.024] registered a 50% inhibitory concentration (IC50) below 10 nM. `COc1nc(-c2cccc(-c3cccc(NC(=O)c4cn(C)c(=O)n(C)c4=O)c3Cl)c2Cl)cnc1CN1CCCC[C@@H]1C(=O)O` [Compound 1.094] gave an IC50 below 10 nM.

Values taken from US11713307B2, “Heteroaryl-biphenyl amides for the treatment of PD-L1 diseases” (CHEMOCENTRYX, INC., priority 2019, dated 2023).
